# From patent US20080234373A1, “Compound Useful For the Prevention and Treatment of Left Ventricular Hypertrophy in Dialysed Patients” (SIGMA-TAU INDUSTRIE FARMACEUTICHE RIUNITE S.P.A., priority 2005, published 2008)
# Experiments:
# [1] = test system: left ventricular (LV) muscle mass and LV systolic and diastolic function; settings: 58 patients with primary glomerulonephritis and moderate chronic renal failure; cited from earlier work
# [2] = test system: left ventricular hypertrophy (LVH) in ESRD dialysed patients; experiment: Clinical trial of propionyl L-carnitine in ESRD patients on dialysis (multicentre, randomized, double-blind, placebo-controlled; echocardiography); type: in vivo
# Experimental: A clinical trial (multicentre, parallel, randomized, double-blind, dose-ranging placebo-controlled study in 300 patients) useful for evaluating both preventive and/or curative effect of the treatment with propionyl L-carnitine (3 and 6 mg/kg given intravenously three times a week at the end of the hemodyalisis session for 26 weeks) has been done.
# Inclusion Criteria • 1) male or female out-patients aged >18 years, suffering from ESRD on bicarbonate dialysis three times a week; • 2) patients who have reached a certain degree of dialytic stability (at least since six months on dialysis), so that the variability due to the progressive patient adaptation of the therapeutic treatment is controlled, presenting no clinical signs of hydric overload at the end of dialysis; • 3) patients showing a degree of cardiac deterioration defined as inter-ventricular septum and left ventricular wall thickness >11 mm; • 4) patients with left ventricular ejection fraction >40%; • 5) patients under stable pharmacological treatment for at least three months; • 6) absence of acute ischaemic events (effort angina, unstable angina, AMI) during the last three months; • 7) presence of an adequate acoustic window and a good echogenicity; • 8) capacity of co-operating with the administered questionnaire. […]
SMILES,"LV ejection fraction, early and late transmittal flow velocities and early to late LV inflow velocities ratio [1]","signs of LVH (a)-(c): left-ventricular septum and posterior wall thickness, end-systolic and end-diastolic size and volume, ejection fraction ([2]; 3 and 6 mg/kg intravenously three times a week at end of hemodialysis for 26 weeks, preliminary ANOVA analysis, treated versus control group)","progression of the signs of LVH (a)-(c) respect to base line ([2]; 3 and 6 mg/kg intravenously three times a week for 26 weeks, T26 vs T0 in treated group, control group worsened)"
C[C@H](CS)C(=O)N1CCC[C@H]1C(=O)O [captopril],not significantly affected,–,–
CCOC(=O)[C@H](CCc1ccccc1)N[C@@H](C)C(=O)N1CCC[C@H]1C(=O)O [enalapril],not significantly affected,–,–
CCC(=O)O[C@H](CC(=O)[O-])C[N+](C)(C)C [propionyl L-carnitine],–,useful for treating the signs of LVH,able to reduce the progression of the signs of LVH
